Values of other authors in patent publication US20070203190A1, “Hydroxylamines and derivatives for the inhibition of complement activation” (priority 2006, published 2007).

B1: CD59: blocks assembly of the MAC; proposed as a potential therapeutic agent (protein, UniProt P13987 26-102, looked up)
CD59 glycoprotein: LQCYNCPNPTADCKTAVNCSSDFDACLITKAGLQVYNKCWKFEHCNFNDVTTRLRENELTYYCCKKDLCNFNEQLEN

How the values were obtained:
[1] = tested on: complement activation; conditions: in vivo animal models
[2] = biological target: MAC

Molecule	suppression of complement activation [1]	activity in vitro [2]
sCR1: a recombinant form of complement receptor 1 known as soluble complement receptor 1	suppress complement activation	–
B1	–	limited activity
